{
  "source": "patent US20110189174A1",
  "about": "“COMPOSITIONS AND METHODS FOR TREATING, REDUCING, AMELIORATING, ALLEVIATING, OR INHIBITING PROGRESSION OF, PATHOGENIC OCULAR NEOVASCULARIZATION” (priority 2010, published 2011)",
  "key": {"[1]": {"system": "laser-induced CNV in monkeys", "experiment": "Laser-induced choroidal neovascularization in monkeys, fluorescein angiography lesion grading", "assay_type": "in vivo, cynomolgus monkeys (Macaca fascicularis)", "details": "intravitreal, both eyes, days 1 and 15, 1.5 mg/eye (Lucentis 0.5 mg/eye)", "description": "Study was performed in three phases. In phases Ia and Ib, the behavior of the suspension in aqueous (Ia) and oil (Ib) formulations, and multiple dosing regimens as well as any adverse effect due to multiple dosing at 3 mg/eye (Ia) or 1.5 (Ib) were investigated. In phase II test articles were administered twice during the study period on days 1 and 15. Eyes were examined with an indirect ophthalmoscope and fundus camera.\nAdult male cynomolgus monkeys (Macaca fascicularis) age 2-7 years old were used to test the efficacy of BOL-303050-X, BOL-303054-X and BOL-303055-X. Lucentis® (ranibizumab) was used as historic control.\nBoth eyes of 46 monkeys were examined at baseline and then 42 animals were randomized into 5 groups. On Phase II Day 8 of Dosing, the animals were anesthetized with ketamine and dexmedetomidine and the macula of each eye of the animals in Groups 1 through […] underwent laser treatment by a retinal surgeon with a 532 nm diode green laser (OcuLight GL, IRIDEX Corp. Inc., Mountain View, Calif.) using a slit lamp delivery system and a Kaufman-Wallow (Ocular Instruments Inc, Bellevue, Wash.) plano fundus contact lens with Gonak (2.5%) as the coupling agent. Nine laser spot areas were symmetrically placed in the macula of each eye. The laser parameters included a 75 micron spot size and 0.1 second duration. The power setting used was assessed by the ability to produce a blister and a small hemorrhage. […] For areas not adjacent to the fovea, the initial power setting was 500 mW; if a second spot was placed, the power was set to 650 mW. For the area adjacent to the fovea the power settings were 400 mW (initial treatment) and 550 mW (second treatment). At the discretion of the retinal surgeon, power settings were adjusted based on observations at the time of laser. Power setting used for each spot was documented as well as number of burns per spot and whether hemorrhage occurred.\n(§1) Once the phase Ib study was completed, and it was established that the drug suspension in oil would not interfere with either laser administration, evaluation of CNV or cause adverse effects, phase II was initiated. On days 1, and 15 both eyes of monkeys received 50 μL of Lucentis (0.5 mg/eye), vehicle (0 mg/eye), BOL-303050-X (1.5 mg/eye), BOL-303054-X (1.5 mg/eye) or BOL-303055-X (1.5 mg/eye) (Table 2). Intravitreous injection was performed for each by eye aiming towards mid-vitreous body. Dosing in the right eye was alternated for successive doses (as applicable) at approximately the 11 o'clock and 10 o'clock positions. Dosing in the left eye was alternated for successive doses (as applicable) from approximately the 1 o'clock and 2 o'clock positions.\nAnimals were anesthetized with ketamine and dexmedetomidine. A topical anesthetic (0.5% proparacaine) was instilled in each eye before dose administration. A wire speculum was used to retract the eyelids. The eyes were cleaned with a 2.5% povidone iodine solution and then rinsed with sterile saline. Each animal was dosed using 1 cc tuberculin syringes and 30 gauge needles.\nFA was performed at baseline, on days 22, 29 and 37 (approximately 14, 21 and 28 days post-laser). Digital ocular photographs were taken in conjunction with FA. The FA procedure is well known by people skilled in the art of ophthalmology.\nEvaluation of FA was done according to the following grading system for evidence of excessive permeability (fluorescein leakage) or any other abnormalities.\nGrade IV lesions are considered to be clinically significant as these most closely resemble the active forms of classical CNV seen in various human retinal disorders, including age-related macular degeneration. Comparison of the incidence of Grade IV lesions between treatment groups was evaluated.\nGrade IV lesions were analyzed using either Fisher's exact probability test (2-Tail) or Chi square test (χ2). […]"}, "[2]": {"details": "intravitreal, wet AMD, cited from earlier work"}, "[3]": {"system": "human retinal endothelial cells (HREC)", "experiment": "Testing 7: VEGF-induced HREC proliferation (MTS assay), integrin antagonists and Lucentis alone and in combination", "assay_type": "cell-based", "details": "Lucentis 1 ng/mL", "description": "HREC were first cultured overnight in a 96-well plate coated with fibronectin. The next day medium containing different agents as shown in Tables 14 and 15 was pre-incubated for 1 hour before being added into appropriate wells. The cells were cultured at 37° C., 5% CO2, and 95% humidity for another 3 days. After that, cell proliferation was estimated by the MTS assay. In the first study we used VEGF 10 ng/mL (about EC80 in study PH08169), Lucentis® 1 ng/mL (about EC25 in study PH09038) and 5 doses of BOL-303055-X. Normal IgG (1 ng/ml) was also added to groups containing no Lucentis®. All groups contained the same amount of 0.1% DMSO. In the second study, all five compounds (BOL-303049-X, BOL-303050-X, BOL-303051-X, BOL-303054-X and BOL-303055-X) were tested at 1 nM with other conditions remaining the same.\nA 96-well plate was coated with human fibronectin (10 μg/mL) for 5 hours at 37° C. HREC were washed with HBSS buffer once, tripsinized and re-suspended in 10% FBS CS-C medium at 18,000 cells/mL. Cells (200 μL) were added to the plate and cultured overnight at 37° C., 5% CO2, and 95% humidity. Next day, the cells were serum-starved for 2 hours.\nFor study I, VEGF at 10 ng/mL, Lucentis® at 1 ng/mL and BOL-303055-X at 0.1, 0.3, 1, 3 and 10 nM were prepared in 1% FBS CS medium as shown in Table 14. Normal IgG (1 ng/mL) were added to groups containing no Lucentis®. All medium solutions were incubated for 1 hour at 37° C. After carefully medium was aspirated, 200 μL of the medium containing different agents were then added into appropriate wells. The cells were cultured for another 3 days. For the study II as shown in the Table 15, five compounds were tested at 1 nM with other conditions remaining the same as study I.\nAt the end of incubation, the medium was carefully aspirated from cells and 120 μl of MTS working solution was added into all wells including blank wells (without cells). The plates were incubated at 37° C., 5% CO2, and 95% humidity for 1 hour and then read by a plate reader at 490 nm wavelength.\nMedian optical density (OD) was generated from different groups. Data were expressed as mean±SEM of the OD values. Statistical analysis was performed using three-way ANOVA after Box-Cox transformations, and p<0.05 was considered statistically significant. To evaluate whether the effects of the combinations were either synergistic or additive, net inhibitions were calculated by subtracting the basal levels in the presence of VEGF from the individual treatments (Lucentis® and Integrin blockers) and the combinations. […] Data analysis was performed utilizing the statistical analysis software JMP (SAS Institute, Cary, N.C.)."}, "[4]": {"experiment": "Clinical ophthalmic examination in monkeys (vitreal cell scores, anterior chamber inflammation)", "assay_type": "in vivo, cynomolgus monkeys (Macaca fascicularis)", "details": "cynomolgus monkey, in vivo", "description": "as §1\nAnimals were examined at baseline, on days 1, 3, 7, 15, and 31 of Dosing Phase II and on the day of scheduled sacrifice (day 38). On days of dose administration the ophthalmic examination was done prior to dosing."}},
  "data": [
    {"substance": "ranibizumab [Lucentis, reference compound]", "values": [
      {"measurement": "Incidence of CNV lesions, Lesion Grade I (% Total)", "setting": "[1]; Day 22", "result": "97:126 (76.98) %"},
      {"measurement": "Incidence of CNV lesions, Lesion Grade II (% Total)", "setting": "[1]; Day 22", "result": "20:126 (15.87) %"},
      {"measurement": "Incidence of CNV lesions, Lesion Grade III (% Total)", "setting": "[1]; Day 22", "result": "9:126 (7.14) %"},
      {"measurement": "Incidence of CNV lesions, Lesion Grade IV (% Total)", "setting": "[1]; Day 22", "result": "0:126 (0) %"},
      {"measurement": "Incidence of CNV lesions, Lesion Grade I (% Total)", "setting": "[1]; Day 29", "result": "96:126 (76.19) %"},
      {"measurement": "Incidence of CNV lesions, Lesion Grade II (% Total)", "setting": "[1]; Day 29", "result": "22:126 (17.46) %"},
      {"measurement": "Incidence of CNV lesions, Lesion Grade III (% Total)", "setting": "[1]; Day 29", "result": "8:126 (6.35) %"},
      {"measurement": "Incidence of CNV lesions, Lesion Grade IV (% Total)", "setting": "[1]; Day 29", "result": "0:126 (0) %"},
      {"measurement": "Incidence of CNV lesions, Lesion Grade I (% Total)", "setting": "[1]; Day 37", "result": "118:126 (93.65) %"},
      {"measurement": "Incidence of CNV lesions, Lesion Grade II (% Total)", "setting": "[1]; Day 37", "result": "8:126 (6.35) %"},
      {"measurement": "Incidence of CNV lesions, Lesion Grade III (% Total)", "setting": "[1]; Day 37", "result": "3:126 (1.85) %"},
      {"measurement": "Incidence of CNV lesions, Lesion Grade IV (% Total)", "setting": "[1]; Day 37", "result": "0:126 (0) %"},
      {"measurement": "Patients who maintained visual acuity", "setting": "[2]; at 1 year", "result": 95, "unit": "%"},
      {"measurement": "Patients with improvement in vision of at least 3 lines", "setting": "[2]", "result": 40, "unit": "%"},
      {"measurement": "Reduction of VEGF-induced HREC proliferation", "setting": "[3]; VEGF 10 ng/mL", "result": "15-20%"},
      {"measurement": "HREC proliferation without VEGF", "setting": "[3]; basal and Lucentis-treatment conditions, BOL-303055-X 0.1-10 nM, other compounds 1 nM", "result": "did not alter HREC proliferation"},
      {"measurement": "Vitreal cell score: number of eyes with grade 4", "setting": "[4]", "result": 0}
    ]}
  ]
}
